From patent publication US11230683B2 (priority 2020, dated 2022)
Several values for one entry are separate records, joined by “and”; a condition that tells them apart may be missing. Equal values may be shown once. Read-outs that look alike come from different tables or passages of the source.

How the values were obtained:
[1] = target: T1, human erythrocyte AChE (hAChE) (Homo sapiens, UniProt P22303); assay: biochemical; assay type: biochemical
T1 construct: The human erythrocyte AChE (hAChE, aqueous buffer solution); purchased Sigma Aldrich; host or cells: human erythrocytes
T1 sequence (P22303 32-617 isoform P22303-2 limits assumed): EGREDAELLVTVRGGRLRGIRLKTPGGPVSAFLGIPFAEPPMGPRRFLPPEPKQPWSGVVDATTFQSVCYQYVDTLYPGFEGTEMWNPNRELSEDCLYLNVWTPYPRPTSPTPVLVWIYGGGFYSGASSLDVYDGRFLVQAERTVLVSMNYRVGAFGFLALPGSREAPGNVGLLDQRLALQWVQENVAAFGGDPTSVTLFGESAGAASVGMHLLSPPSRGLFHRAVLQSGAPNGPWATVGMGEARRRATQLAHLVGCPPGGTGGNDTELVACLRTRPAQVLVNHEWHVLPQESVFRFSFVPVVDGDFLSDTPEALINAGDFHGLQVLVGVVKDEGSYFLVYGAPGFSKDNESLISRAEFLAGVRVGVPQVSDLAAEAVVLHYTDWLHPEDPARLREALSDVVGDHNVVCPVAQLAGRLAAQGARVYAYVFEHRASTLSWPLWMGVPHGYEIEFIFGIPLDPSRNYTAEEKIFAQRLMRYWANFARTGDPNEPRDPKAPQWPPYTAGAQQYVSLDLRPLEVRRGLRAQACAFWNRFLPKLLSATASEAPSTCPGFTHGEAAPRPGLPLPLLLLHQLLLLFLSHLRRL

[2] = target: T2, BuChE from equine serum (eqBuChE) (Equus caballus, UniProt P81908); assay: biochemical; assay type: biochemical
T2 construct: The BuChE freeze-dried from equine serum (eqBuChE, Sigma Aldrich); purchased Sigma Aldrich; host or cells: equine serum
T2 sequence (P81908 whole entry): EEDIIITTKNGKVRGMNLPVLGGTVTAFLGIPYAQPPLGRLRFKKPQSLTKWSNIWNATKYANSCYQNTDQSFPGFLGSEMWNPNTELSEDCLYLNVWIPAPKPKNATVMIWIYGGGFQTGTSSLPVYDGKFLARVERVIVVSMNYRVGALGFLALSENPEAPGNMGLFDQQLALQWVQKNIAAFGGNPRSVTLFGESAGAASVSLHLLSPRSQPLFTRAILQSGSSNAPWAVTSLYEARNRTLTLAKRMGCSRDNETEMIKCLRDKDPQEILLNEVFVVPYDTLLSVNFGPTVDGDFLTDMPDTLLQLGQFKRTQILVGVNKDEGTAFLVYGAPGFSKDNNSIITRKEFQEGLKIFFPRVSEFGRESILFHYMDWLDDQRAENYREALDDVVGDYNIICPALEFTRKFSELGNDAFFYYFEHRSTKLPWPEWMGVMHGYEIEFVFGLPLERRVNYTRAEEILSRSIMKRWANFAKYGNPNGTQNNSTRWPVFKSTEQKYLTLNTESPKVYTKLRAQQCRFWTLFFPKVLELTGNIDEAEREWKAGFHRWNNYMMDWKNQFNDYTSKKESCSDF

In the case of O=P(Oc1ccccc1)(Oc1ccccc1)Oc1ccc(Sc2ccc(OP(=O)(Oc3ccccc3)Oc3ccccc3)cc2)cc1 [Compound 3, 4,4′-dihydroxydiphenylthioether bis(diphenylphosphate)], the IC50 ([1]; IC50 hAChE) is reported as 34 µM and the IC50 ([2]; IC50 eqBuChE) is reported as 166 µM.
For O=P(Oc1ccccc1)(Oc1ccccc1)Oc1cc(OP(=O)(Oc2ccccc2)Oc2ccccc2)cc(OP(=O)(Oc2ccccc2)Oc2ccccc2)c1 [Compound 5, 1,3,5-phloroglucinol tris(bis(diphenylphosphate))], the IC50 ([2]; IC50 eqBuChE) was 100 µM.
Work on CCCCC(CC)(COP(=O)(Oc1ccccc1)Oc1ccccc1)COP(=O)(Oc1ccccc1)Oc1ccccc1 [Compound 6, 2-butyl-2-ethyl-1,3-propanediol bis(diphenylphosphate)] yielded an IC50 ([1]; IC50 hAChE) of 26.3 µM and an IC50 ([2]; IC50 eqBuChE) of 93.7 µM.
In the case of O=P(Oc1ccccc1)(Oc1ccccc1)Oc1ccc(-c2ccc(OP(=O)(Oc3ccccc3)Oc3ccccc3)cc2)cc1 [Compound 2, 4,4′-dihydroxybiphenyl bis(diphenylphosphate)], the IC50 ([1]; IC50 hAChE) is reported as 38.4 µM and 128 µM and the IC50 ([2]; IC50 eqBuChE) is reported as 155 µM and 244 µM.
For CC(C)(C)c1ccc(OP(=O)(Oc2ccccc2)Oc2ccc(C(C)(C)C)cc2)cc1 [Compound H, di(p-tertbutylphenyl)phenylphosphate], the IC50 ([1]; IC50 hAChE) was 27.6 µM and the IC50 ([2]; IC50 eqBuChE) was 280 µM.
With O=P(Oc1c(F)cccc1F)(Oc1c(F)cccc1F)Oc1c(F)cccc1F [Compound F, Tri(2,6-difluorophenyl)phosphate] the IC50 ([1]; IC50 hAChE) was 12.9 µM and the IC50 ([2]; IC50 eqBuChE) was 20 µM.
For CC(C)(C)c1ccc(OP(=O)(Oc2ccc(C(C)(C)C)cc2)Oc2ccc(C(C)(C)C)cc2)cc1 [Compound I, Tri(p-tert-butylphenyl)phosphate], the “action on acetylcholinesterase, in words” value [1] was “active”, the IC50 ([1]; IC50 hAChE) was 17 µM and the “action on butyrylcholinesterase, in words” value [2] was “reduced inhibition”. For the same compound, the IC50 ([2]; IC50 eqBuChE) was 194 µM.
For Cc1cccc(OP(=O)(Oc2cccc(C)c2)Oc2cccc(C)c2)c1 [Compound C, Tri(meta-cresyl)phosphate], the IC50 ([1]; IC50 hAChE) was 25.2 µM and the IC50 ([2]; IC50 eqBuChE) was 6.24 µM.
For Cc1ccccc1OP(=O)(Oc1ccccc1C)Oc1ccccc1C [Compound B, Tri(ortho-cresyl)phosphate], the IC50 ([1]; IC50 hAChE) was 40.7 µM and the IC50 ([2]; IC50 eqBuChE) was 10 µM.
Cc1ccc(OP(=O)(Oc2ccc(C)cc2)Oc2ccc(C)cc2)cc1 [Compound D, Tri(para-cresyl)phosphate] was tested, and the IC50 ([1]; IC50 hAChE) was 26.3 µM and the IC50 ([2]; IC50 eqBuChE) was 116 µM.
In the case of O=P(OCCCl)(OCCCl)OCCCl [Compound N, tris(chloroethyl)phosphate], the IC50 ([1]; IC50 hAChE) is reported as 28.7 µM and the IC50 ([2]; IC50 eqBuChE) is reported as 315 µM.
NP(=O)(Oc1ccccc1)Oc1ccccc1 [Compound K, Diphenyl phosphoroamidate] gave an IC50 [1] of 38.1 µM and an IC50 [2] of 136 µM.
With Saligenin cresyl phosphate [Compound J] the “IC50 eqBuChE” value [2] was 0.7 µg/mL.
Tricresyl phosphate [Compound P] was tested, and the “IC50 hAChE” value [1] was 16.9 µg/mL and the “IC50 eqBuChE” value [2] was 0.7 µg/mL.
For CCCCC(CC)COP(=O)(Oc1ccccc1)Oc1ccccc1 (stereo not drawn) [Compound A, 2-ethylhexyl diphenylphosphate], the IC50 ([1]; IC50 hAChE) was 35 µM and the IC50 ([2]; IC50 eqBuChE) was 1.93 µM.
In the case of O=P(Oc1ccccc1)(Oc1ccccc1)Oc1ccc(Oc2ccc(OP(=O)(Oc3ccccc3)Oc3ccccc3)cc2)cc1 [Compound 4, 4,4′-dihydroxydiphenylether bis(diphenylphosphate)], the IC50 ([1]; IC50 hAChE) is reported as 33.9 µM and the IC50 ([2]; IC50 eqBuChE) is reported as 118 µM.
CCC(COP(=O)(Oc1ccccc1)Oc1ccccc1)(COP(=O)(Oc1ccccc1)Oc1ccccc1)COP(=O)(Oc1ccccc1)Oc1ccccc1 [Compound 7, trimethylolpropane tris(diphenylphosphate)] was tested, and the IC50 ([1]; IC50 hAChE) was 22 µM and the IC50 ([2]; IC50 eqBuChE) was 145 µM.
For O=P(Oc1ccccc1)(Oc1ccccc1)Oc1ccc(OP(=O)(Oc2ccccc2)Oc2ccccc2)cc1 [Compound 1, Hydroquinone bis(diphenylphosphate)], the IC50 ([1]; IC50 hAChE) was 42 µM and the IC50 ([2]; IC50 eqBuChE) was 186 µM.
